Results from ChEMBL document CHEMBL5465560, “Selectivity Literature for EUbOPEN Chemogenomic Library” (2024).
Values belong to the compound of their own block, whether it stands above or below them.

Assays:
[1] = biological target: CDK9/Cyclin K (Homo sapiens) (UniProt P50750+O75909); assay: Selectivity interaction (LanthaScreen Eu Kinase Binding Assay) EUB0001632a CDK9; type: protein-complex assay; settings: at 10 µM
D(3) dopamine receptor = D(3) dopamine receptor (Homo sapiens, UniProt P35462); assay: Selectivity interaction (Eurofins CEREP Diversity Profile (receptors and ion channels)) EUB0000279b DRD3; settings: at 10 µM
[2] = biological target: Insulin-like growth factor 1 receptor (Homo sapiens, UniProt P08069); assay: Selectivity interaction (KinomeScan (DiscoverX)) EUB0000666a IGF1R; settings: at 10 µM
[3] = biological target: T1, Serine/threonine-protein kinase D1 (Homo sapiens) (UniProt Q15139); assay: Selectivity interaction (Kinase panel (literature)) EUB0001199aCl PRKD1; settings: at 1 µM
T1 sequence (whole entry): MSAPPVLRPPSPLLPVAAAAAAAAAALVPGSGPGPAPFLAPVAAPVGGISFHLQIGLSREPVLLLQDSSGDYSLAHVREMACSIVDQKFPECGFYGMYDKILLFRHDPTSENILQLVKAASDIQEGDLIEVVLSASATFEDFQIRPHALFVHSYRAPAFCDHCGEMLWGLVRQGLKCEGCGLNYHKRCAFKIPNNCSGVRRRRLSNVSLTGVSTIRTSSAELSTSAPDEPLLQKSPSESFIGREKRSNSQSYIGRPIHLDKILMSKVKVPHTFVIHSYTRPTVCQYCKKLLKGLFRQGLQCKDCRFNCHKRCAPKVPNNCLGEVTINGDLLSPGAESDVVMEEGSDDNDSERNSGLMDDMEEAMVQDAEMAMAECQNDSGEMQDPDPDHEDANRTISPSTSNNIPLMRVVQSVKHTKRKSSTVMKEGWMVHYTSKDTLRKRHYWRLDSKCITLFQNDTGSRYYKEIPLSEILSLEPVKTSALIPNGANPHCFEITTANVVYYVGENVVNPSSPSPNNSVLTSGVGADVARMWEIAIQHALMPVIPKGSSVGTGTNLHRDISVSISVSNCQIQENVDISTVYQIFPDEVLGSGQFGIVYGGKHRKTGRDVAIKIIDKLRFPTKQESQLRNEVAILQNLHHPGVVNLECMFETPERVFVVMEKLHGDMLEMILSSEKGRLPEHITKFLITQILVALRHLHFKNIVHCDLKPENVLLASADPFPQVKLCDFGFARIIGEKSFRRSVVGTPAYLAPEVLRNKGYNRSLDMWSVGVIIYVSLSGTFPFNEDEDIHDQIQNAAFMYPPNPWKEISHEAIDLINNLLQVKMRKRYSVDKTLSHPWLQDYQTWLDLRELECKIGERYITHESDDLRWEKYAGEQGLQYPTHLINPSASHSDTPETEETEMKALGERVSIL

[4] = biological target: T2, EKC/KEOPS complex subunit TP53RK (Homo sapiens) (UniProt Q96S44); assay: Selectivity interaction (ActivX KiNativ screen (kinase selectivity in THP-1 cell lysates)) EUB0000639a TP53RK; type: subcellular; settings: lysate
T2 sequence (whole entry): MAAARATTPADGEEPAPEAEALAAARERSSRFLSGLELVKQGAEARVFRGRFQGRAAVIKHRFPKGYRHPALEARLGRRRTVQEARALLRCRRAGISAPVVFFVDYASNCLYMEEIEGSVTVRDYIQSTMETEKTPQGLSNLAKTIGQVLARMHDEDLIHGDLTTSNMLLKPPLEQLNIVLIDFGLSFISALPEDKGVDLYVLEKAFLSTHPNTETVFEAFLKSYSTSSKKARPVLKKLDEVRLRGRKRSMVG

[5] = biological target: Non-receptor tyrosine-protein kinase TYK2 (Homo sapiens, UniProt P29597); assay: Selectivity interaction (ActivX KiNativ screen (kinase selectivity in THP-1 cell lysates)) EUB0000639a TYK2; type: subcellular; settings: lysate, at 1 µM
[6] = biological target: Tyrosine-protein kinase ABL2 (Homo sapiens, UniProt P42684); assay: Selectivity interaction (KinomeScan (DiscoverX)) EUB0001049a ABL2; settings: at 1 µM
[7] = biological target: T3, Histone-arginine methyltransferase CARM1 (Homo sapiens) (UniProt Q86X55); settings: KMS-28BM, at 3 µM
T3 sequence (whole entry): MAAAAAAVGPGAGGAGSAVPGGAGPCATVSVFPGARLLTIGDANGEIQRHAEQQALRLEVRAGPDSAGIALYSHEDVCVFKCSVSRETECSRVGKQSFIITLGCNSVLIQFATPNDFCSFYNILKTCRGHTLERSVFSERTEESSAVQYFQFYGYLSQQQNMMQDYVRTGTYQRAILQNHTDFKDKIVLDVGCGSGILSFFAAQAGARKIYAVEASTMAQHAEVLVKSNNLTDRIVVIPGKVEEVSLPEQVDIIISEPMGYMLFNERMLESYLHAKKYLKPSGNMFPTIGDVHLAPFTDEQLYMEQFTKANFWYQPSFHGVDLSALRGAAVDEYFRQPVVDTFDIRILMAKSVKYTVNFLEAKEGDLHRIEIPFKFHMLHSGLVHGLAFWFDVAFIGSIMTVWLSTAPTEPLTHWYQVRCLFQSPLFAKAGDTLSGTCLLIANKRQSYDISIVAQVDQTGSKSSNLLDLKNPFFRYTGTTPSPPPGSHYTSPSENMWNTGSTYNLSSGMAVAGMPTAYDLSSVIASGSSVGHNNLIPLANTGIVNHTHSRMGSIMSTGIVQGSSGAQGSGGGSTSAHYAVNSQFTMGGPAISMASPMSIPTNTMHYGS

[8] = biological target: Cyclin-dependent kinase 16 (Homo sapiens) (UniProt Q00536); assay: Selectivity interaction (Kinase panel (KiNativ target engagement assay in Jurkat cells)) EUB0001635a CDK16; type: cell-based; settings: Selectivity number of off-targets 0.0, Selectivity number of targets 233.0, Source Knowledge https://www.sciencedirect.com/science/article/pii/S2451945619300674?via%3Dihub, at 1 µM
[9] = biological target: T4, Dual specificity mitogen-activated protein kinase kinase 4 (Homo sapiens) (UniProt P45985); assay: Selectivity interaction (ActivX KiNativ screen (ex vivo kinase selectivity in human PBMCs)) EUB0001619a MAP2K4; type: cell-based; settings: PBMC, at 1 µM
T4 sequence (whole entry): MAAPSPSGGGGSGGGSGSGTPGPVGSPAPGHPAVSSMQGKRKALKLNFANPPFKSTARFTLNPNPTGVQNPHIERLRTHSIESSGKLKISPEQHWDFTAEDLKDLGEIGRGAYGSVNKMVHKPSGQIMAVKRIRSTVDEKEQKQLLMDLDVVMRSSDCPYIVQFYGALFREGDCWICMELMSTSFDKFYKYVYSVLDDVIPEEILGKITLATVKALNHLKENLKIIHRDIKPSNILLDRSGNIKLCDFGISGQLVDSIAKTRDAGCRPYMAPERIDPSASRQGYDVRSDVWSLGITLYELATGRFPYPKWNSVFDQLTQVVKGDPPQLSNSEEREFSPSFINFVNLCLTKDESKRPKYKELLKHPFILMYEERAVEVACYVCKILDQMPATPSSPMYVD

D(3) dopamine receptor, sequence (P35462 whole entry): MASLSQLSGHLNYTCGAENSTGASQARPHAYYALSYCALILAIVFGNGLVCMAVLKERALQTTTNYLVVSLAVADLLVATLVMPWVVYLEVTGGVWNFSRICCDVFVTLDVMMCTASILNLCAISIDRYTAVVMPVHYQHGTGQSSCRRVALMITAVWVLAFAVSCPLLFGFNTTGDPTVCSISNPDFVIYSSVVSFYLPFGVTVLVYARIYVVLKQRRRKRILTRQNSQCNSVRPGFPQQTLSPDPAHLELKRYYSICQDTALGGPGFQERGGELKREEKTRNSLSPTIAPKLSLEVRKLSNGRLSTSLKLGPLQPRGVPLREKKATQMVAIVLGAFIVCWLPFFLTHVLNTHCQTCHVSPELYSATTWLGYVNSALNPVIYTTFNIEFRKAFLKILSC
Non-receptor tyrosine-protein kinase TYK2, sequence (P29597 whole entry): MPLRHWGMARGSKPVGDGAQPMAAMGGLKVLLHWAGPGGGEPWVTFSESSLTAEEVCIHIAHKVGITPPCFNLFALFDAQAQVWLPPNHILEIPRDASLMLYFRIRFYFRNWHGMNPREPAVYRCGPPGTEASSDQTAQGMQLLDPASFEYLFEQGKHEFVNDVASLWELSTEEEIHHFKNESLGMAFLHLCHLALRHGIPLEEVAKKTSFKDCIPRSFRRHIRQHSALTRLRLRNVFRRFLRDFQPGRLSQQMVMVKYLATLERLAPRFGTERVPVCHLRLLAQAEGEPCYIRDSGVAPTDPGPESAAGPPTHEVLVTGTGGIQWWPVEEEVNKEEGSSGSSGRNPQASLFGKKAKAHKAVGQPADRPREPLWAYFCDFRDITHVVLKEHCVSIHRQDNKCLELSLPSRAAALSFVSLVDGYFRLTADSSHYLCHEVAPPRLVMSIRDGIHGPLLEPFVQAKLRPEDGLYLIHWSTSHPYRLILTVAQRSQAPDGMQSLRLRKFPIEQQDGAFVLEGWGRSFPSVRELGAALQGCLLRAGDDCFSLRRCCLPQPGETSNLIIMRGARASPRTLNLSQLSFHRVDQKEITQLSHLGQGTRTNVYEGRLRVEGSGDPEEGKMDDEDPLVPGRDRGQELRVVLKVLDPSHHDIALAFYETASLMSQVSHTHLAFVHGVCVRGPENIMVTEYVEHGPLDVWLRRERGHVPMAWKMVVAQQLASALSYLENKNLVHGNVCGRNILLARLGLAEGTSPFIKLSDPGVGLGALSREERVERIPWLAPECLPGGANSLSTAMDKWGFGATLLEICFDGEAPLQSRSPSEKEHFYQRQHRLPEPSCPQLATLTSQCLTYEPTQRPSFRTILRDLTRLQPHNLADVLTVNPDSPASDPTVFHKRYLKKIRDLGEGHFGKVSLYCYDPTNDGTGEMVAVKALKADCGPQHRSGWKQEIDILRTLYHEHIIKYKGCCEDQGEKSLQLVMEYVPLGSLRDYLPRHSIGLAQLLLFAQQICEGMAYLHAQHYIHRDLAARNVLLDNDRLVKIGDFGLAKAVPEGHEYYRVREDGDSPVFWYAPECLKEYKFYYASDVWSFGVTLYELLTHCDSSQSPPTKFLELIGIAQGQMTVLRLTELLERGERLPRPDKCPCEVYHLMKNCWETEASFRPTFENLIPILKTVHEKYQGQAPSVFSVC
Tyrosine-protein kinase ABL2, sequence (P42684 whole entry): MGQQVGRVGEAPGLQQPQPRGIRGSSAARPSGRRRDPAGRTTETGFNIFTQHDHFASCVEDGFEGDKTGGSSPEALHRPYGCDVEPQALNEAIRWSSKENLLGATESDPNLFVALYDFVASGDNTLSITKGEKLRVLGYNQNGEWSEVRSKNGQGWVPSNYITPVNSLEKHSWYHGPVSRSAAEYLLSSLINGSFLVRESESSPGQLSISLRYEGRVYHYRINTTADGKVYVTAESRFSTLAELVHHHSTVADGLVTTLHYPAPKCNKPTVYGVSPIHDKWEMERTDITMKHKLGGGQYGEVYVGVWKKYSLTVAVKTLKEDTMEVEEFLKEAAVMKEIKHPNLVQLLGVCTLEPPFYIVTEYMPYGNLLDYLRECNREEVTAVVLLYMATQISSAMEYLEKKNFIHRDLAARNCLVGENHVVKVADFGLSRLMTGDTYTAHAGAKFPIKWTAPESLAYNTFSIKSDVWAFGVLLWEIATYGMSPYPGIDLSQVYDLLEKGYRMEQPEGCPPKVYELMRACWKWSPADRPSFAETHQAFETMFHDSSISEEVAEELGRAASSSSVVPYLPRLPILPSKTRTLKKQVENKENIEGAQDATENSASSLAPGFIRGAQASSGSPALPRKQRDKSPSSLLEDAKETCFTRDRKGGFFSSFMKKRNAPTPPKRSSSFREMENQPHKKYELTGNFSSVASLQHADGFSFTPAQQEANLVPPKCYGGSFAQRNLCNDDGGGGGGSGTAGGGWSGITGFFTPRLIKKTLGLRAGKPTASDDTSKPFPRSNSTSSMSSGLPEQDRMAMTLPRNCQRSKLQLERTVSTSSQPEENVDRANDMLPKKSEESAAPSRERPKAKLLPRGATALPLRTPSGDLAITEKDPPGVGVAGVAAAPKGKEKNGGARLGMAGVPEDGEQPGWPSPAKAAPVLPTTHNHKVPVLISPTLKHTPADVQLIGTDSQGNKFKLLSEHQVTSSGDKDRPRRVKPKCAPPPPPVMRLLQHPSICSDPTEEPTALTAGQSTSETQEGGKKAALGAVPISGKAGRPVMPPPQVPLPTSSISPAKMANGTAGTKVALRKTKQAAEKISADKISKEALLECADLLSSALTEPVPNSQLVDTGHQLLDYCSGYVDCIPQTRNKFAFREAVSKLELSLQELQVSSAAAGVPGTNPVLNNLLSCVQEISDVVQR
Cyclin-dependent kinase 16 (Homo sapiens), sequence (Q00536 whole entry): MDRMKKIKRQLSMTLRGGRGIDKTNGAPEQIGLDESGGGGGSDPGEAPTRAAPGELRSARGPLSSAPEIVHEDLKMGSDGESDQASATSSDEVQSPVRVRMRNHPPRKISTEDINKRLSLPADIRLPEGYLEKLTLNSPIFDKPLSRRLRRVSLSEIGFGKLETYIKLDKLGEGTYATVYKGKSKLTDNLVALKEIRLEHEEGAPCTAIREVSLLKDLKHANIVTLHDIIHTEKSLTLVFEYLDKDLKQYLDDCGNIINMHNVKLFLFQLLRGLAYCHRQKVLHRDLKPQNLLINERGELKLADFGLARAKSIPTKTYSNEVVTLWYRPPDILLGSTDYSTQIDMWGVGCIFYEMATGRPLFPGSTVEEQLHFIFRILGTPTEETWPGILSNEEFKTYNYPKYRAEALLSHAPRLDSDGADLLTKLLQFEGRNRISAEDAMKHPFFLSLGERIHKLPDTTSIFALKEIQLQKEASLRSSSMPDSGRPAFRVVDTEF
Insulin-like growth factor 1 receptor, sequence (P08069 31-736 limits assumed): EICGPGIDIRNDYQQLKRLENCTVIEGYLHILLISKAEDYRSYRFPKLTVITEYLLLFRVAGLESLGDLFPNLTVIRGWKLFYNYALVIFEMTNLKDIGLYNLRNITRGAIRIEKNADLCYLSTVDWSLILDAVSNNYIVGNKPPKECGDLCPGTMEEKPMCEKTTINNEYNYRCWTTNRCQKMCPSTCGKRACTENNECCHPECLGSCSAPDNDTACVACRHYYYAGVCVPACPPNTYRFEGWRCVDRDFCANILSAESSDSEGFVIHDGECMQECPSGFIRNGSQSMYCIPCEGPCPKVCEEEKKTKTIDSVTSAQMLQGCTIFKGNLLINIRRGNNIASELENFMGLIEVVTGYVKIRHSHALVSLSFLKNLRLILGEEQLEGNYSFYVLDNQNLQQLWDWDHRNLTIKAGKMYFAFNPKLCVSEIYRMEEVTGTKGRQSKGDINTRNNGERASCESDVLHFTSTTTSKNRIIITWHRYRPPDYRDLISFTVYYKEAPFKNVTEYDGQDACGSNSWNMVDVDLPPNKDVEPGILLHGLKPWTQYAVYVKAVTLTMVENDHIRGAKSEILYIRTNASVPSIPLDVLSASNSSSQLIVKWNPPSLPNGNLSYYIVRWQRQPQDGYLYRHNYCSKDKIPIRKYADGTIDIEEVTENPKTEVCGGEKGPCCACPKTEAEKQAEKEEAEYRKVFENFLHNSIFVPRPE
Insulin-like growth factor 1 receptor, sequence (P08069 741-1367 limits assumed): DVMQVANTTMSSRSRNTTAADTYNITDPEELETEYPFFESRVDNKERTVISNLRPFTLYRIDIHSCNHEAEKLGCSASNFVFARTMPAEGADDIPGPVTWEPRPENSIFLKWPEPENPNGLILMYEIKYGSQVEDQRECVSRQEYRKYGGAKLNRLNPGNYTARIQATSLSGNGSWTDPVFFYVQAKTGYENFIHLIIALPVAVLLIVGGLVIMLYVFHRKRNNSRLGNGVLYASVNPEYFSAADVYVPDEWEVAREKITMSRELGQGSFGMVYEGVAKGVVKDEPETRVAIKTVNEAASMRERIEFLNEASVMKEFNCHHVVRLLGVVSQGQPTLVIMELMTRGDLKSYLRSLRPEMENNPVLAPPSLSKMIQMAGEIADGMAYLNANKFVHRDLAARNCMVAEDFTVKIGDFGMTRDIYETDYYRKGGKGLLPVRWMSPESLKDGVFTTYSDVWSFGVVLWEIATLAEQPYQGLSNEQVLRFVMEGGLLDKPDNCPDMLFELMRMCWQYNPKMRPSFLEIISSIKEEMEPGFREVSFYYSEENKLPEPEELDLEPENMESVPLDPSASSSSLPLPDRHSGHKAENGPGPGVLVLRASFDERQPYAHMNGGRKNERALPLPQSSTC

Compound: O=C(NOC[C@H](O)CO)c1ccc(F)c(F)c1Nc1ccc(I)cc1F
- % of control [2]: 87%

Compound: COc1cc(Nc2nc(C)cc(-c3cnn4nc(OC)ccc34)n2)cc(C(F)(F)F)c1
- % of control [6]: 76%

Compound: C=CC(=O)Nc1ccc(C(=O)Nc2[nH]nc3c2CN(C(=O)N[C@H](CN(C)C)c2ccccc2)C3(C)C)cc1
- % of engagement [8]: 2.3%

Compound: N#Cc1cccc(-c2c[nH]c3ncnc(N4CCOCC4)c23)c1
- % of inhibition [9]: 19%

Second part, the compound after the results:

- % of inhibition [1]: -32.1%
Compound: Cn1cc(-n2cnc3c(NCc4nc5cc(Cl)c(Cl)cc5[nH]4)nc(N4CCOCC4)nc32)cn1

- % of control (D(3) dopamine receptor): 81%
Compound: CC(=O)c1cc(-c2ccccc2OCC2CC2)c2ncccn12

- % of inhibition [3]: -11%
Compound: CN1Cc2nccc(-c3cn(C)nc3-c3ccc(F)cc3)c2C1=O

- % of inhibition ([4]; at 0.01 µM): 13.5%
- % of inhibition ([4]; at 0.04 µM): 5.2%
- % of inhibition ([4]; at 0.2 µM): 15.3%
- % of inhibition ([4]; at 1 µM): 30.7%
- % of inhibition ([4]; at 5 µM): 60.6%
- % of inhibition [5]: -8.7%
Compound: CC[C@@H]1[C@H](F)C(=O)N[C@@H]1COc1nccc2cc(C(N)=O)c(OC)cc12 [ZIMLOVISERTIB]

- % of growth rate [7]: -24.1%
Compound: CNCCN1CCC(c2cc(CN(C)C(=O)c3cccc(Oc4ccccc4)c3)ccn2)CC1
